In patent US20260232767A1, “INTERLEUKIN-23 RECEPTOR ANTAGONIST PEPTIDES FOR USE IN THE TREATMENT OF PSORIASIS” (Janssen Pharmaceutica NV, priority 2023, published 2026):

System: BD-2
Assay: Serum BD-2 immunoassay
Format: in vivo, human
Conditions: all treatment groups vs placebo; as early as Week 4
Description: To evaluate psoriasis relevant systemic biomarkers (Beta-defensin 2 (BD-2), IL-17A, IL-17F, and IL-22), protein concentrations were measured in serum using validated immunoassays. The IL-17A (Catalog #03-0159-00) and IL-17F (Catalog #03-0164-00) assays used are commercially available SMC™-based high sensitivity immunoassays produced by the EMD Millipore Corporation. The manufacturer's protocols were followed and analyzed on the Erenna® instrument platform except for the use of 11 μL Elution Buffer B. While the IL-22 assay is also based on the SMC™ platform and run on the Erenna instrument, the assay was developed internally as a coated plate-based assay. The development and optimization of the BD-2 assay was done on the Meso Scale Discovery on the electrochemiluminescence-based platform, a division of Meso Scale Diagnostics LLC (MSD). For all assays, concentration adjustments were made to values measuring below empirically defined LLOQ or empirically defined ULOQ values. Assay QC verified performance of generated standard curves (average concentration recovery & CV of technical replicates) and control samples (inter-assay plate agreement (CV)).
Serum levels of psoriasis disease biomarkers BD-2, IL-22, IL-17A, and IL-17F relative to baseline were analyzed in patients who received placebo or the compound of Formula (I) and compared to clinical response. […]

With `CC(=O)NCCCC[C@@H]1NC(=O)[C@H](Cc2c[nH]c3c(C)cccc23)NC(=O)[C@H]([C@@H](C)O)NC(=O)[C@H](CC(N)=O)NC(=O)[C@@H](NC(C)=O)C(C)(C)SSC(C)(C)[C@@H](C(=O)N[C@@H](Cc2ccc(OCCN)cc2)C(=O)N[C@@H](Cc2ccc3ccccc3c2)C(=O)NC2(C(=O)N[C@@H](CCC(=O)O)C(=O)N[C@@H](CC(N)=O)C(=O)N[C@@H](Cc3cccnc3)C(=O)N(C)CC(N)=O)CCOCC2)NC1=O` [IL-23 receptor antagonist peptide, Ac-[Pen]*-N-T-[W(7-Me)]-[Lys(Ac)]-[Pen]*-Phe[4-(2-aminoethoxy)]-[2-Nal]-[THP]-E-N-[3-Pal]-Sarc-NH2 (*[Pen]-[Pen]* formdisulfidebond)] the BD-2 serum levels was “Statistically significant reduction”.
